Where two headings read alike, the source gives them in different places.
Tests used:
trompes humaines = experiment: Clinical follow-up of pregnancies after non-surgical female sterilization with intrauterine quinacrine tablets, alone or with an anti-inflammatory adjuvant; assay type: in vivo, femmes; conditions: for taux de grossesse: quinacrine alone
Protocol: (§1) Ce symptôme est survenu chez 6 % des sujets dans les deux insertions ou seulement dans une seule. • b) un phénomène de fièvre de 38°C à 39,5°C apparaissant le surlendemain du jour d'insertion et durant de 1 à 4 jours, sans relation avec le mal de tête. Les deux symptômes sont corrélés chez seulement quelques sujets. La fièvre est apparue chez 5 % des cas (parfois lors de la première insertion et parfois lors de la seconde). Les autres complications ont été semblables à celles décrites dans l'article publié précédemment J. Zipper et al. Adv. in Contraception 3(1987)255. A la fin de l'année de suivi, le taux de grossesse a été de 3,0 pour 100 femmes et par an.
(§2) Un autre groupe utilisant la quinacrine seule a été constitué, qui a subi deux insertions intra-utérines avec des comprimés à 180 mg. Les insertions ont été séparées par un cycle menstruel - 190 sujets sont entrés dans cette étude. […] Chez un petit nombre de sujets seulement les deux symptômes ont été présents simultanément. La fièvre est apparue dans 3% des cas (pas nécessairement lors des deux insertions). Ce groupe a manifesté un taux de grossesse de 3 pour 100 femmes, et par an à la fin de la première année du suivi. Les deux groupes quinacrine (250 et 180 mg) ont été considéré comme des témoins pour les autres groupes qui ont reçu un anti-inflammatoire, un antipyrétique et des substances anti-prostagrandines.
(§3) 4 mg de Bétaméthasone et 4 mg de Dexaméthasone ont été employé dans des groupes distincts de sujets. • 1 - 4 mg de Betaméthasone intra-musculaire Ce groupe incluait 90 sujets - 4 mg de Bethaméthasone ont été injectés lorsque le comprimé de quinacrine à 250 mg a été inséré. Ce procédé a été utilisé à nouveau avec le second comprimé (comprimé à 250 mg ayant un temps de dissolution de 100 mn). […] Les sujets ont achevé une année de suivi et ont représenté 1220 mois. […] Ce groupe incluait 65 sujets. […] Ces sujets ont effectué au total 830 mois de suivi. […] Ceci nous a conduit à faire des investigations sur la potentialisation possible des effets occlusifs de la quinacrine chez le rat dû à la betaméthasone. Cette méthode expérimentale est celle décrite pour d'autres substances (ref. Agent pharmacologique qui potentialisent ou inhibent l'action occlusivante de la quinacrine, dans le tube du lapin et dans l'utérus de rat cf J. ZIPPER-S.INSUNSA Female Stérilization - pronostic pour des techniques simplifiées pour le sujet ambulatoire Ed Gordon, W. Duncan, R.D. Falb et J. Joseph SPEIDEL (p 131-137), NEW YORK Acad. Press 1972 compte-rendu). La Betamethasone s'est révélée être active chez le rat, avec des solutions de l'ordre de 005 mg/ml. La base physiologique de cette action n'a pas été déterminée et aucun rapport à ce sujet n'a été publié (cf histologie de l'utérus de rat sous l'influence de 50 mg/ml de quinacrine + 0, 05 mg /ml Betamethasone Figure 1).
Ce groupe inclue 80 sujets. Lorque le comprimé de 250 mg est inséré, 4 mg de Dexamethatone sont injectés par voie intramusculaire. La méthode est réputée avec un second comprimé. […] Les sujets ont achevé 950 mois de suivi.
L'insertion est effectuée après que les comprimé aient été insérés. Ce groupe inclût 60 sujets. […] Ce groupe avait 850 mois de suivi.
La bétaméthasone et la Dexamethasone sont des stéroïdes ayant une activité puissante antiphlogistique, anti-inflammatoire et anti-oedemateuse au niveau cérébral et sont des adjuvants importants pour réduire les effets secondaires indésirables de la quinacrine lorsque cette substance est employée pour provoquer l'occlusion la région intra-murale des trompes humaines afin de réaliser une stérilisation pharmacologique. En outre, un mécanisme d'action qui n'est pas clair, semble renforcer l'action d'occlusion de la quinacrine à ce niveau. Le nombre total de sujets a été de 295 et a représenté 3850 mois/femmes d'observation. Seulement une grossesse a été détectée. […]

utérus de rat = experiment: Potentiation of the occlusive effect of quinacrine in the rat uterus; assay type: in vivo; conditions: solutions of the order of 005 mg/ml (Figure 1: 50 mg/ml quinacrine + 0, 05 mg /ml)
Protocol: as §3, with “La base physiologique de cette action n'a pas été déterminée et aucun rapport à ce sujet n'a été publié (cf histologie de l'utérus de rat sous l'influence de 50 mg/ml de quinacrine + 0, 05 mg /ml Betamethasone Figure 1).” left out

femmes = experiment: Clinical follow-up of side effects (fever, headache) after intrauterine insertion of quinacrine tablets, alone or with an anti-inflammatory adjuvant; assay type: in vivo
Protocol: as §1
as §2, with “anti-prostagrandines. […]” for “anti-prostagrandines.”
• 1 - Diclofenac sel de sodium - Cet important agent anti-inflammatoire et inhibiteur de synthèse de prostaglandine a été appliqué en une dose unique intramusculaire de 75 mg, lorsque le comprimé de quinacrine à 180 mg a été inséré. Deux insertions par sujet ont été effectuées, séparées par un cycle menstruel - 78 sujets ont été traités - 702 mois de suivi. […] Ce procédé a été utilisé à nouveau avec le second comprimé séparé par un cycle menstruel. […] Ce groupe incluait 85 sujets. Les sujets ont achevé 1190 mois de suivi. […] Cet agent antipyrétique anti-inflammatoire a été appliqué en une dose unique intramusculaire de 2 g lorsque le pellet de quinacrine à 180 mg (temps de dissolution 10 minutes) a été inséré. Deux insertions, séparées par un cycle mentruel ont été effectuées - 76 sujets ont été traités, 1064 mois de suivi. […] D'autres agents anti-inflammatoires , antiprostaglandine non stéroidiens comme le Piroxicam, Indomethacine, Ibuprogene, Naproxen ou d'autres peuvent être utilisés. La recherche avec quelques uns de ces agents est en développement. De même, la recherche avec les inhibiteurs de synthèse de prostaglandines appliqués par voie intrautérine ou intramusculaire une seule fois est en développement.

sujets = conditions: cited from earlier work
[1] = 50 mg tablets by the 'intra-urétine' route simultaneously with quinacrine tablets (180 mg, dissolution time 10 min), two insertions, 85 subjects, first seven days
[2] = single 75 mg intramuscular dose at each of two insertions of 180 mg quinacrine tablet, 78 subjects, first week
[3] = share of subjects after the first insertion of quinacrine (250 mg)
[4] = share of subjects after the third insertion of quinacrine (250 mg)

## C[C@H]1C[C@H]2[C@@H]3CCC4=CC(=O)C=C[C@]4(C)[C@@]3(F)[C@@H](O)C[C@]2(C)[C@@]1(O)C(=O)CO [Betaméthasone]
Trompes humaines; 4 mg intramuscular at each of two insertions of 250 mg quinacrine tablet, 90 subjects, 1220 months of follow-up, pregnancy in sixth month
  grossesse: Seulement une grossesse normotopique a été détectée
Trompes humaines; 4 mg intrauterine (solution in 1 ml) simultaneously with quinacrine tablet, 65 subjects, 830 months of follow-up
  grossesse: Aucune grossesse n'a été signalée
utérus de rat
  potentialisation des effets occlusifs de la quinacrine: active

## O=C(O)Cc1ccccc1Nc1c(Cl)cccc1Cl [Diclofenac sel de sodium]
femmes; [1]
  fièvre: ni fièvre
  maux de tête: ni maux de tête
femmes; [2]
  fièvre: ni fièvre
  mal de tête: ni mal de tête
Trompes humaines; 50 mg tablets by the 'intra-urétine' route simultaneously with quinacrine tablets (180 mg, dissolution time 10 min), 85 subjects, 1190 months of follow-up
  grossesse: Aucune grossesse n'a été détectée
Trompes humaines; single 75 mg intramuscular dose at each of two insertions of 180 mg quinacrine tablet, 78 subjects, 702 months of follow-up
  grossesse: aucune grossesse n'a été détectée

## Cc1c(N(C)CS(=O)(=O)O)c(=O)n(-c2ccccc2)n1C [Dipyrone, metamizol sel de sodium]
Trompes humaines; single 2 g intramuscular dose at each of two insertions of 180 mg quinacrine pellet (dissolution time 10 min), 76 subjects, 1064 months of follow-up
  grossesse: aucune grossesse n'a été détectée

## CCN(CC)CCCC(C)Nc1c2ccc(Cl)cc2nc2ccc(OC)cc12 (stereo not shown) [quinacrine]
Trompes humaines; two insertions of 250 mg tablets, 209 subjects, 2544 months, end of the year of follow-up
  taux de grossesse: 3,0 pour 100 femmes et par an
Trompes humaines; two intrauterine insertions of 180 mg tablets, 190 subjects, end of first year of follow-up
  taux de grossesse: 3 pour 100 femmes, et par an
sujets; [3]
  fièvre: 10%
  maux de tête: 9%
sujets; [4]
  fièvre: 2%
  maux de tête: 10,2%

From patent EP0380897B1, “Pharmaceutical agents for female sterilization by way of intrauterine administration, and their therapeutical use” (priority 1989, dated 1990)
